Experimental data: the supplement of paper PMC10307832

How the values were obtained:
Assay in all cases: relative viability (nuclei count vs DMSO), 5 days (fraction); higher = more cells survive
AZD5582 + Linsitinib = compound: C[C@@H](C(=O)N[C@@H](C1CCCCC1)C(=O)N2CCC[C@H]2C(=O)N[C@@H]3[C@@H](CC4=CC=CC=C34)OCC#CC#CCO[C@@H]5CC6=CC=CC=C6[C@@H]5NC(=O)[C@@H]7CCCN7C(=O)[C@H](C8CCCCC8)NC(=O)[C@H](C)NC)NC [AZD5582] + C[C@]1(O)C[C@@H](c2nc(-c3ccc4ccc(-c5ccccc5)nc4c3)c3c(N)nccn32)C1 [Linsitinib] (partner 1 µM)
In short: (§1)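 Lung cancer cell lines were seeded in 1536-well plates and dosed by pin tool the next day, with either a single drug or a fixed anchor-drug dose combined with five library-drug doses (not always all listed) spaced in √10 steps. Five days later, one step fixed the cells and stained their nuclei (final 0.05% Triton X-100, 1% formaldehyde, 1 ug/ml Hoechst), and nuclei were counted on 4× images. Relative viability is the nuclei count in treated wells divided by the count in vehicle wells, and each value is the median of duplicate plates.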

[1] = compound: Cn1nnc2c(C(N)=O)ncn2c1=O [Temozolomide] + Nc1ncn([C@H]2C[C@H](O)[C@@H](CO)O2)c(=O)n1 [Decitabine] (partner 2 µM)
In short: as §1

AZD5582 + Crizotinib = compound: C[C@@H](C(=O)N[C@@H](C1CCCCC1)C(=O)N2CCC[C@H]2C(=O)N[C@@H]3[C@@H](CC4=CC=CC=C34)OCC#CC#CCO[C@@H]5CC6=CC=CC=C6[C@@H]5NC(=O)[C@@H]7CCCN7C(=O)[C@H](C8CCCCC8)NC(=O)[C@H](C)NC)NC [AZD5582] + C[C@@H](Oc1cc(-c2cnn(C3CCNCC3)c2)cnc1N)c1c(Cl)ccc(F)c1Cl [Crizotinib] (partner 1 µM)
In short: as §1

[2] = compound: Cn1nnc2c(C(N)=O)ncn2c1=O [Temozolomide] + CC(=O)c1c(C)c2cnc(Nc3ccc(N4CCNCC4)cn3)nc2n(C2CCCC2)c1=O [Palbociclib] (partner 0.5 µM)
In short: as §1

Cell Line | relative viability (AZD5582 + Linsitinib; first compound 0.001581 µM) | relative viability (AZD5582 + Linsitinib; first compound 0.005 µM) | relative viability (AZD5582 + Linsitinib; first compound 0.01581 µM) | relative viability (AZD5582 + Linsitinib; first compound 0.05 µM) | relative viability ([1]; first compound 0.2 µM) | relative viability ([1]; first compound 0.6325 µM) | relative viability ([1]; first compound 2 µM) | relative viability ([1]; first compound 6.325 µM) | relative viability ([1]; first compound 20 µM) | relative viability (AZD5582 + Crizotinib; first compound 0.001581 µM) | relative viability (AZD5582 + Crizotinib; first compound 0.005 µM) | relative viability (AZD5582 + Crizotinib; first compound 0.01581 µM) | relative viability (AZD5582 + Crizotinib; first compound 0.05 µM) | relative viability ([2]; first compound 0.2 µM) | relative viability ([2]; first compound 0.6325 µM) | relative viability ([2]; first compound 2 µM) | relative viability ([2]; first compound 6.325 µM) | relative viability ([2]; first compound 20 µM)
LU99A | 0.575 | 0.622 | 0.525 | 0.752 | 0.88 | 0.833 | 0.917 | 0.848 | 0.776 | 0.548 | 0.685 | 0.501 | 0.672 | 0.447 | 0.42 | 0.472 | 0.387 | 0.388
LXF-289 | 0.924 | 0.936 | 0.959 | 0.998 | 0.388 | 0.403 | 0.367 | 0.373 | 0.391 | 0.75 | 0.788 | 0.788 | 0.725 | 0.616 | 0.626 | 0.606 | 0.579 | 0.564
NCI-H522 | – | – | – | – | 0.591 | 0.623 | 0.747 | 0.608 | 0.59 | – | – | – | – | 0.976 | 0.919 | 1.05 | 1.02 | 0.682
NCI-H596 | 1.28 | 0.503 | 1.08 | 0.246 | 1.13 | 1.07 | 1.03 | 1.02 | 0.905 | 0.902 | 0.279 | 1.03 | 0.1 | – | – | – | – | –
NCI-H1299 | 0.93 | 1.04 | 1.01 | 0.97 | – | – | – | – | – | 0.895 | 0.895 | 0.994 | 0.901 | – | – | – | – | –
NCI-H1395 | 1.05 | 1.03 | – | 1.11 | 0.707 | 0.716 | 0.849 | 0.657 | 0.717 | – | – | – | – | 0.532 | 0.62 | 0.663 | 0.616 | 0.535
NCI-H1563 | 1.23 | 1.18 | 1.24 | 1.15 | – | – | – | – | – | 0.8 | 0.86 | 0.852 | 0.978 | – | – | – | – | –
NCI-H1648 | – | – | – | – | – | 0.469 | 0.459 | 0.336 | 0.37 | – | – | – | – | – | 0.23 | 0.318 | 0.273 | 0.283
NCI-H1650 | – | – | – | – | 0.45 | 0.422 | 0.515 | 0.457 | 0.532 | 0.904 | 0.964 | 0.88 | 0.736 | 0.339 | 0.406 | 0.362 | 0.355 | 0.28
NCI-H1793 | 0.816 | 1.01 | 0.752 | 1.11 | – | 0.54 | 0.624 | 0.36 | 0.424 | – | – | – | – | – | 0.268 | 0.367 | 0.318 | 0.264
NCI-H2170 | – | – | – | – | – | 0.511 | 0.45 | 0.383 | 0.268 | 1.1 | 1.25 | 1.18 | 1.47 | – | 0.398 | 0.368 | 0.375 | 0.264
NCI-H2228 | 0.903 | 0.689 | 0.813 | 0.44 | – | – | – | – | – | 0.623 | 0.521 | 0.702 | 0.479 | 0.918 | 1.03 | 0.809 | 0.798 | 0.614
NCI-H2342 | – | – | – | – | 0.737 | 0.771 | 0.666 | 0.676 | 0.803 | – | – | – | – | 0.501 | 0.529 | 0.521 | 0.491 | 0.53
SW 900 | – | – | – | – | 0.428 | 0.427 | 0.453 | 0.511 | 0.427 | – | – | – | – | 0.598 | 0.612 | 0.556 | 0.559 | 0.468
